The values below come from patent US4236010A, “Phenyl-quinolizidines” (Hoffmann-La Roche Inc., priority 1978, dated 1980).

Structures can show the parent of a compound that is named as a salt.

Test [1] can be described thus: "Pole Climbing" test (rat). Format: in vivo. To be noted: ip, 6 h; for ED50: Rattus norvegicus, read-out: Pole-Climbing BCR (Block of Conditioned Reflex) ED50 i.p.; for ED10: rat, i.p., inhibition of the unconditioned reaction, ED 10, read-out: Pole-Climbing BUR (Block of Unconditioned Reflex) ED10 i.p. The source says: "Pole Climbing" test (rat)
In this test, there was used, for each dosage, a group of 10 rats which had been trained to escape an electric shock, unconditioned stimulus, produced via the lattice floor immediately after an acoustic signal, conditioned stimulus, by jumping up a vertical isolated pole in the experimental cage.

For test [2], the target named is T1, calf striatum (specific binding of [^3 H] spiroperidol on the receptor) (Bos taurus, UniProt P20288).
T1 construct: calf striatum was used as the receptor; from tissue; host or cells: calf striatum
T1 sequence (P20288 whole entry): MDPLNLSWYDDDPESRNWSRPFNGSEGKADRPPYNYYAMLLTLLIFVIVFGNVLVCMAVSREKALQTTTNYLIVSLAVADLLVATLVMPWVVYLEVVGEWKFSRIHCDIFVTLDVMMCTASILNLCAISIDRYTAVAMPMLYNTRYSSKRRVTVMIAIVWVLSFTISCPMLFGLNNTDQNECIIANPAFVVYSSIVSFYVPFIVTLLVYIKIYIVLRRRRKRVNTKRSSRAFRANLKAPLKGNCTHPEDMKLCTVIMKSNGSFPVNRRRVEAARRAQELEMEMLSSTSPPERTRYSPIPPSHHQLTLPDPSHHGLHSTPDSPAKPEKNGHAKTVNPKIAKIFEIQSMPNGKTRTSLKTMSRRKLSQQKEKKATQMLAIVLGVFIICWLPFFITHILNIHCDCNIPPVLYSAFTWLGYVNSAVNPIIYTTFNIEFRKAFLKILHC
Put plainly: Spiroperidol-binding test (in vitro). The following applies: 50% detachment of specific [^3 H] spiroperidol binding. The protocol: Spiroperidol-binding test (in vitro)
In this in vitro test calf striatum was used as the receptor [Creese et al., Life Sci. 17, 993 (1975)] and incubated with [^3 H] spiroperidol in analogy to the method described by Fields et al., Brain Research 136, 578 (1977).

Test [3] can be described thus: Hot-plate test (mouse). Format: in vivo. To be noted: po, 1 h, mice, p.o., 60 minutes after administration, plate 60°±0.5° C. The protocol:
Eight mice (20-22 g) were used per dosage. Sixty minutes after oral administration of the test substance, the mice were placed on a heated metal plate of 60°±0.5° C. Untreated mice begin to lick their paws within a maximum of 10 seconds.
(In general: Hot-plate and tail-flick tests time the reaction to a heat stimulus.)

A short description of test [4]: Writhing test (mouse). The test is classed as in vivo. To be noted: po, 1 h, male mice, p.o., 60 minutes after administration. As for the experimental part:
Eight male mice (20-22 g.) per dosage, were used for this test. Sixty minutes after oral administration of the test substance, the mice were injected intraperitoneally with 10 ml/kg of the test solution. Following a latent period of 5 minutes, the number of animals in which no more than one characteristic writhing symptom (convulsive stretching movement of the body) occurred over five minutes was registered.

As to `Cc1cc2[nH]c(=O)n([C@@H]3CCN4C[C@@H](c5ccccc5Cl)CC[C@@H]4C3)c2cc1C` (relative stereo) [rac-1-[(9aβH)-7β-(o-Chlorophenyl)octahydro-2H-quinolizin-2α-yl]-5,6-dimethyl-2-benzimidazolinone HCl], in test [1], the ED50 (commonly the dose at which the effect has come halfway, by size or by number of responders) worked out at 1.75 mg/kg and the ED10 worked out at 4.55 mg/kg. Further, the IC50 (commonly the point on the concentration scale where inhibition reaches its midpoint) in test [2] was determined as 5 nM.

Consider `O=c1[nH]c2cc(C(F)(F)F)ccc2n1[C@@H]1CCN2C[C@@H](c3ccccc3Cl)CC[C@@H]2C1` (relative stereo) [rac-1-[(9aβH)-7β-(o-Chlorophenyl)octahydro-2H-quinolizin-2α-yl]-5-trifluoromethyl-2-benzimidazolinone HCl], for which, in test [1], the ED50 is 0.21 mg/kg and the ED10 stood at 0.41 mg/kg. The compound further showed an IC50 in test [2] of 10 nM.

`O=c1[nH]c2cc(Cl)ccc2n1[C@@H]1CCN2C[C@@H](c3ccccc3F)CC[C@@H]2C1` (relative stereo) [rac-1-[(9aβH)-7β-(o-Fluorophenyl)octahyro-2H-quinolizin-2α-yl]-5-chloro-2-benzimidazolinone HCl]: in test [1], the 50% effective dose (ED50) came to 0.064 mg/kg and the ED10 was 0.175 mg/kg.

Regarding `CC(C)(C)[C@]1(O)CCN2C[C@@H](c3ccc(Cl)cc3Cl)CC[C@@H]2C1` (relative stereo) [rac-(9aβ H)-2α-tert.-Butyl-7β-(2,4-dichlorophenyl) octahydro-2H-quinolizin-2-ol HCl], in test [1], the ED50 turned out to be 6.4 mg/kg and the ED10 came to 5.4 mg/kg. The compound further came in with a 50% inhibitory concentration (IC50) in test [2] of 79 nM.

For the compound `CCC(=O)O[C@@]1(c2ccccc2)CCN2C[C@@H](c3cccc(OC)c3)CC[C@@H]2C1` (relative stereo) [rac-(9aβH)-2α-Phenyl-7β-(m-methoxyphenyl)-octahydro-2H-quinolizin-2-yl propionate HCl], the 50% effective dose (ED50) is 12 mg/kg in test [3] and 2.8 mg/kg in test [4].

Regarding `CCCC[C@]1(OC(C)=O)CCN2C[C@@H](c3ccccc3)CC[C@@H]2C1` (relative stereo) [rac-(9aβH)-2α-n-Butyl-7β-phenyl-octahydro-2H-quinozilin-2-yl acetate HCl], the results for the ED50 in test [3] and in test [4] were 25 mg/kg and 0.75 mg/kg, respectively.

Consider `CC(C)(C)[C@]1(OC(=O)C(F)(F)F)CCN2C[C@@H](c3ccccc3)CC[C@@H]2C1` (relative stereo) [rac-(9aβH)-2α-tert.Butyl-7β-phenyl-octahydro-2H-quinolizin-2-yl trifluoroacetate HCl], for which the figures for the ED50 in test [3] and in test [4] were 86 mg/kg and 8.7 mg/kg, respectively.

As to `CC(=O)O[C@]1(c2ccccc2)CCN2C[C@@H](c3ccccc3Cl)CC[C@@H]2C1` (relative stereo) [rac-(9aβH)-2β-Phenyl-7β-(o-chlorophenyl)-octahydro-2H-quinolizin-2-yl acetate HCl], the ED50 in test [3] amounted to 284 mg/kg; in test [4], 116 mg/kg.

Take `CCCCC1(OC(C)=O)CCN2CC(c3ccccc3)CCC2C1.Cl` (single isomer, unassigned; (+)) [(+)-2-Butyloctahydro-7-phenyl-2H-quinolizin-2-yl acetate HCl]: the ED50 in test [3] was found to be 2.6 mg/kg; in test [4] it was 0.19 mg/kg.

In the case of `CC(C)(C)[C@]1(O)CCN2C[C@@H](c3ccc(Cl)cc3Cl)CC[C@@H]2C1` [(-)-(2S,7R,9aR)-2-tert.-Butyl-7-(2,4-dichlorophenyl) octahydro-2H-quinolizin-2-ol HCl], in test [1], the ED50 was 4.7 mg/kg and the ED10 came to 3.8 mg/kg. The compound also showed an IC50 in test [2] of 41 nM.
